Reference: paper PMC12207590, “Substrate Specificity of the Organic Cation Transporters MATE1 and MATE2K and Functional Overlap with OCT1 and OCT2” (Journal of Medicinal Chemistry, 2025)
Like-named read-outs stand apart in the source and are kept apart here.

What was measured:
MATE1 [1] = biological target: T1, MATE1 (Homo sapiens, UniProt Q96FL8); assay: Uptake ratio in MATE1-overexpressing HEK293 cells vs empty vector (2.5 μM, 1 min, HPLC-MS/MS); type: cell-based; conditions: for MATE1 ratio in this study: Table S1
T1 sequence (Q96FL8 1-570): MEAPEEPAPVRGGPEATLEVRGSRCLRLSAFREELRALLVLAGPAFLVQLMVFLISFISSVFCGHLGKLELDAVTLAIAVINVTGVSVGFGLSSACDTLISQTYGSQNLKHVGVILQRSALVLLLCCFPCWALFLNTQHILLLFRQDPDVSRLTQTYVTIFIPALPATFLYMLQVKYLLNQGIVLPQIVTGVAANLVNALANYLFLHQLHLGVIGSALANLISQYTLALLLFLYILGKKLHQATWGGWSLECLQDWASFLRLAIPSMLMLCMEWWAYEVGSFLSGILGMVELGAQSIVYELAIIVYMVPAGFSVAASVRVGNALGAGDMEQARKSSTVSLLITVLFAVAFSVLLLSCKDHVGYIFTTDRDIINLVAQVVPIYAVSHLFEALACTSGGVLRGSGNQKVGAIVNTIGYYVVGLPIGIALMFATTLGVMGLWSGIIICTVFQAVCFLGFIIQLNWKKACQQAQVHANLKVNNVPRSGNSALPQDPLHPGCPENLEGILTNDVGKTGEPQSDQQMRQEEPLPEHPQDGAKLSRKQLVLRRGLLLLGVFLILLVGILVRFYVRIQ

MATE2K [2] = biological target: T2, MATE2K (Homo sapiens, UniProt Q86VL8); assay: Uptake ratio in MATE2K-overexpressing HEK293 cells vs empty vector (2.5 μM, 1 min, HPLC-MS/MS); type: cell-based; conditions: for MATE2K ratio in this study: Table S1
[3] = test system: MATE1, MATE2K, OCT1, OCT2; assay: Substrate specificity and overlap among the four transporters (ratio cutoff 2); type: cell-based, human
hCMEC [4] = assay: TS DPH hCMEC (Table S2); type: cell-based, human; parameters: scale not given here
hCMEC [5] = assay: TS MDAI hCMEC (Table S2); type: cell-based, human; parameters: scale not given here
MATE1 [6] = biological target: T1, MATE1; assay: Concentration-dependent uptake (Michaelis-Menten) via MATE1 in HEK293 cells; conditions: for Km: read-out: MATE1 KM
MATE2K [7] = biological target: T2, MATE2K; assay: Concentration-dependent uptake (Michaelis-Menten) via MATE2K in HEK293 cells; conditions: HEK293, 1 min, net uptake; for Km: read-out: MATE2K KM
[8] = fold uptake over empty vector, 2.5 μM, 1 min
[9] = uptake ratio MATE1-overexpressing vs empty-vector HEK293 cells, 2.5 μM, 1 min, mean
[10] = uptake ratio MATE2K-overexpressing vs empty-vector HEK293 cells, 2.5 μM, 1 min, mean

T2 sequence (Q86VL8 1-566 isoform Q86VL8-3): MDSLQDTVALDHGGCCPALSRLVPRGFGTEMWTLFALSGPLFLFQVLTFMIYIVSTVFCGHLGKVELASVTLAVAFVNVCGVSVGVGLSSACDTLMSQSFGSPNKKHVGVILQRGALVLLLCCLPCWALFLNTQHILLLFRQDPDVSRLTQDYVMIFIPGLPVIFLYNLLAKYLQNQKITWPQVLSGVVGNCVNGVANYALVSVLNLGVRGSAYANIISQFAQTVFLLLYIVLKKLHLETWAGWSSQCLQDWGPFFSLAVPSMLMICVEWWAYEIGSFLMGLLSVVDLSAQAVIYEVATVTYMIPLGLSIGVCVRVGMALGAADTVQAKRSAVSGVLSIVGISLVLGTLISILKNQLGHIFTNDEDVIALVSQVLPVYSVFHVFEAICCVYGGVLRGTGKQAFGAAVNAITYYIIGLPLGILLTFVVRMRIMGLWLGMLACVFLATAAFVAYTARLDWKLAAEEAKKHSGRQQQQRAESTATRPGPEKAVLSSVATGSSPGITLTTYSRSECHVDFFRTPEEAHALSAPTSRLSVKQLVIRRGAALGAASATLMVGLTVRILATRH

CCCCCCN [Hexylamine]
MATE1 ratio (MATE1 [1]): 1.21
MATE2K ratio (MATE2K [2]): 1.08
Substrate specificity among MATE1, MATE2K, OCT1, OCT2 ([3]; transport ratio cutoff of 2): OCT1 only

COc1ccc2c3c1O[C@H]1C(=O)CC[C@@]4(O)[C@@H](C2)NCC[C@]314 [Noroxycodone]
MATE1 ratio (MATE1 [1]): 1.39
MATE2K ratio (MATE2K [2]): 1.13
Substrate specificity among MATE1, MATE2K, OCT1, OCT2 ([3]; transport ratio cutoff of 2): OCT1 only

CC(CCc1ccc(O)cc1)NCCc1ccc(O)c(O)c1 (centres unmarked) [Dobutamine]
MATE1 ratio (MATE1 [1]; [8]): 17.41
MATE2K ratio (MATE2K [2]; [8]): 2.77
TS DPH hCMEC (hCMEC [4]; Table S2): 0.67
TS MDAI hCMEC (hCMEC [5]; Table S2): 0.99
MATE1 Vmax (MATE1 [6]; HEK293, 1 min, net uptake): 2586 pmol × mg protein^–1 × min^–1
Km (MATE1 [6]; HEK293, 1 min, net uptake): 88.6 µM
MATE2K Vmax (MATE2K [7]): 493 pmol × mg protein^–1 × min^–1
Km (MATE2K [7]): 86.4 µM

COCCn1c2c([n+](Cc3cnccn3)c1C)C(=O)c1ccccc1C2=O [Sepantronium]
MATE1 (MATE1 [1]): 6.15
MATE1 ratio (MATE1 [1]): 6.15
MATE2 (MATE2K [2]): 9.45
MATE2K ratio (MATE2K [2]): 9.45
TS DPH hCMEC (hCMEC [4]): 1.01
TS MDAI hCMEC (hCMEC [5]): 0.99
MATE1 Vmax (MATE1 [6]): 304 pmol × mg protein^–1 × min^–1
Km (MATE1 [6]; HEK293, 1 min, net uptake): 80.9 µM
MATE2K Vmax (MATE2K [7]): 78.5 pmol × mg protein^–1 × min^–1
Km (MATE2K [7]): 8.54 µM

COC(=O)C(c1ccccc1)C1CCCCN1 (centres unmarked) [Methylphenidate]
TS DPH hCMEC (hCMEC [4]): 0.33
TS MDAI hCMEC (hCMEC [5]): 0.24
Substrate specificity among MATE1, MATE2K, OCT1, OCT2 ([3]; transport ratio cutoff of 2): OCT2 only

CC(C)NCC(O)c1cc(O)cc(O)c1 (centres unmarked) [Orciprenaline]
MATE1 ratio (MATE1 [1]; [8]): 34.88
MATE2K ratio (MATE2K [2]; [8]): 23.10
Substrate specificity among MATE1, MATE2K, OCT1, OCT2 ([3]; transport ratio cutoff of 2): All four transporters

CCOC(=O)C1(c2ccccc2)CCN(C)CC1 [Pethidine]
Substrate specificity among MATE1, MATE2K, OCT1, OCT2 ([3]; transport ratio cutoff of 2): MATE2K only

CC[C@@]1(O)C(=O)OCc2c1cc1n(c2=O)Cc2cc3c(CN(C)C)c(O)ccc3nc2-1 [Topotecan]
MATE1 ratio in this study (MATE1 [1]; 2.5 μM, 1 min): 2.53
MATE1 (MATE1 [1]; [9]): 2.53
MATE2K ratio in this study (MATE2K [2]; 2.5 μM, 1 min): 1.61
MATE2 (MATE2K [2]; [10]): 1.61
Substrate specificity among MATE1, MATE2K, OCT1, OCT2 ([3]; transport ratio cutoff of 2): MATE1 only

C[C@H](CS)C(=O)N1CCC[C@H]1C(=O)O [Captopril]
Substrate specificity among MATE1, MATE2K, OCT1, OCT2 [3]: no substrates of the four transporters

C[C@H](N)[C@@H](O)c1ccccc1 [Cathine]
TS DPH hCMEC (hCMEC [4]): 0.35
Substrate specificity among MATE1, MATE2K, OCT1, OCT2 ([3]; transport ratio cutoff of 2): OCT2 only

CNC[C@H](O)c1cccc(O)c1 [Phenylephrine]
MATE1 ratio (MATE1 [1]; [8]): 13.78
MATE2K ratio (MATE2K [2]; [8]): 1.75
TS DPH hCMEC (hCMEC [4]; Table S2): 0.76
TS MDAI hCMEC (hCMEC [5]; Table S2): 1.03
MATE1 Vmax (MATE1 [6]; HEK293, 1 min, net uptake): 11,611 pmol × mg protein^–1 × min^–1
Km (MATE1 [6]; HEK293, 1 min, net uptake): 474 µM
MATE2K Vmax (MATE2K [7]): 776 pmol × mg protein^–1 × min^–1
Km (MATE2K [7]): 434 µM

CC1(C)N=C(N)N=C(N)N1c1ccc(Cl)cc1 [Cycloguanil]
MATE1 ratio in this study (MATE1 [1]; 2.5 μM, 1 min): 21.02
MATE1 ratio (MATE1 [1]; [8]): 21.02
MATE2K ratio in this study (MATE2K [2]; 2.5 μM, 1 min): 10.75
MATE2K ratio (MATE2K [2]; [8]): 10.75
Substrate specificity among MATE1, MATE2K, OCT1, OCT2 ([3]; transport ratio cutoff of 2): All four transporters

thyrotropin-releasing hormone
Substrate specificity among MATE1, MATE2K, OCT1, OCT2 ([3]; transport ratio cutoff of 2): no substrates of the four transporters

COc1ccc(OC)c(C(O)CNC(=O)CN)c1 (centres unmarked) [Midodrine]
MATE1 ratio (MATE1 [1]; [8]): 4.53
MATE2K ratio (MATE2K [2]; [8]): 1.43
TS DPH hCMEC (hCMEC [4]; Table S2): 1.05
TS MDAI hCMEC (hCMEC [5]; Table S2): 1.02
Substrate specificity among MATE1, MATE2K, OCT1, OCT2 ([3]; transport ratio cutoff of 2): MATE1 only

Nc1ccncc1 [Fampridine (4-aminopyridine), 4-aminopyridine]
Substrate specificity among MATE1, MATE2K, OCT1, OCT2 ([3]; transport ratio cutoff of 2): OCT2 only

CC[N+](CC)(CC)CC(=O)Nc1c(C)cccc1C [N-Ethyl-lidocaine]
MATE1 ratio (MATE1 [1]; [8]): 36.39
MATE2K ratio (MATE2K [2]; [8]): 14.68
Substrate specificity among MATE1, MATE2K, OCT1, OCT2 ([3]; transport ratio cutoff of 2): All four transporters

COc1cc(Cc2cnc(N)nc2N)cc(OC)c1OC [trimethoprim]
MATE1 (MATE1 [1]; [9]): 1.52
MATE2 (MATE2K [2]; [10]): 1.23
Substrate specificity among MATE1, MATE2K, OCT1, OCT2 ([3]; transport ratio cutoff of 2): OCT1 only

COc1cc(C(O)CN)ccc1O (centres unmarked) [Normetanephrine]
MATE1 ratio (MATE1 [1]; [8]): 1.80
MATE2K ratio (MATE2K [2]; [8]): 0.82
Substrate specificity among MATE1, MATE2K, OCT1, OCT2 ([3]; transport ratio cutoff of 2): OCT1 only

N=C(N)c1ccc2cc(OC(=O)c3ccc(N=C(N)N)cc3)ccc2c1 [Nafamostat]
MATE1 ratio (MATE1 [1]): 5.45
MATE2K ratio (MATE2K [2]): 1.64
Substrate specificity among MATE1, MATE2K, OCT1, OCT2 ([3]; transport ratio cutoff of 2): MATE1 only
